Among the data in article doi:10.1101/2022.04.11.487889v1 (biorxiv, 2022) are IC50 values, retold here.

For the assay, the target named is T1, recombinant human PRDX6 (peroxiredoxin 6) (Homo sapiens, UniProt P30041).
T1 sequence (P30041 1-224): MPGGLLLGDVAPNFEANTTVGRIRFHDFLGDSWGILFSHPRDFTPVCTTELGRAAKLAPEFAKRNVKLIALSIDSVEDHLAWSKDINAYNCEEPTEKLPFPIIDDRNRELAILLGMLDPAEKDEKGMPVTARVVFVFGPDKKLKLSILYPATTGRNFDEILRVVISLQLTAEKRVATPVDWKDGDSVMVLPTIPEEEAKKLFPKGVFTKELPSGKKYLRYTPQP
The assay is described as follows: radioactive PLA2 assay, […]-DPPC liposomes, scintillation counting. The assay is classed as biochemical.

With `CCN(CC)CCN(Cc1ccc(-c2ccc(C(F)(F)F)cc2)cc1)C(=O)Cn1c(SCc2ccc(F)cc2)nc(=O)c2c1CCC2` [Darapladib], the half-inhibitory concentration (IC50) is around 500 nM.
